Laboratory results published in patent publication US20260256870A1, “SKIN COMPOSITION” (Eaderm Co., Ltd., priority 2019, published 2026).
Counter-ions that a name gives are not always drawn.

What follows are compounds tested on human epidermal keratinocytes (assay: Colony formation assay using human epidermal keratinocytes). Conditions: Table 1.
Assay type: cell-based
Source text: To test whether COL17A1-mediated SCD maintains clonal proliferation of epidermal stem cell clones, the present inventors used a colony formation assay, which is an in vitro assay said to be the gold standard for assessing the self-renewal ability of epidermal stem cells, including cells in the tail epidermis.

| Compound | Colony area (control ratio) | Colony number (control ratio) |
| --- | --- | --- |
| CC(=N)NCc1cccc(CN)c1 [1400 W] | ○ | ○ |
| CN(C)c1cccc(-c2c3c(=O)n(-c4ccccc4Cl)[nH]c3cc(=O)n2C)c1 [GKT137831] | ○ | ○ |
| C#C[C@]1(O)CC[C@H]2[C@@H]3CCc4cc(O)ccc4[C@H]3CC[C@@]21C [Ethynyl Estsadiol] | ⊚ (one double circle (⊚) indicates maintenance of 1.0-1.2-fold) | ⊚ (one double circle (⊚) indicates maintenance of 1.0-1.2-fold) |
| CN1C(=O)C(Cc2c[nH]c3ccccc23)NC1=S (stereo not drawn) [Necrostatin-1] | ⊚ (one double circle (⊚) indicates maintenance of 1.0-1.2-fold) | ⊚ (one double circle (⊚) indicates maintenance of 1.0-1.2-fold) |
| CC(=O)c1ccc2c(c1)Nc1ccccc1S2 [ML171] | ⊚ (one double circle (⊚) indicates maintenance of 1.0-1.2-fold) | ⊚ (one double circle (⊚) indicates maintenance of 1.0-1.2-fold) |
| Cc1ccc(-c2cc(C(F)(F)F)nn2-c2ccc(S(N)(=O)=O)cc2)cc1 [Celecoxib] | ⊚ (one double circle (⊚) indicates maintenance of 1.0-1.2-fold) | ⊚ (one double circle (⊚) indicates maintenance of 1.0-1.2-fold) |
| c1ccc2c(c1)[I+]c1ccccc1-2 [Diphenyleneiodonium (DPI), Diphenyleneiodonium] | ○ | ○ |

What follows are compounds tested on COL17A1 (assay: COL17A1 expression in human epidermal keratinocytes by high content imaging (HCS)). Conditions: not given.
Assay type: cell-based
Experimental: The present inventors further searched for substances that induce or maintain the expression of COL17A1. Human epidermal keratinocytes were seeded in 384-well plates, cultured for 48 hours after addition of reagents, immunostained with an anti-COL17A1 antibody and a fluorescently labeled secondary antibody, and then the fluorescence intensity per cell was detected using a high content imaging system (HCS: High Content Screening). In addition to cell counting with DAPI, the expression level of COL17A1 was quantified.

| Compound | COL17A1 expression level (control ratio) |
| --- | --- |
| O=P1(N(CCCl)CCCl)NCCCO1 (stereo not drawn) [Cyclophosphamide hydrate] | 0.88 |

Same assay, conditions: Table 1; human epidermal keratinocytes, 48 hours after addition of reagents, fluorescence intensity per cell

| Compound | COL17A1 expression level (control ratio) |
| --- | --- |
| CN1C(C(=O)Nc2ccccn2)=C(O)c2sccc2S1(=O)=O [Tenoxicam] | ⊚ (one double circle (⊚) represents a 1.2-fold or greater increase) |
| CC(=N)NCc1cccc(CN)c1 [1400 W] | ○ (one circle (0) represents a 1.0-1.2-fold maintenance) |
| CCCCOc1ccc(CC(=O)NO)cc1 [Bufexamac] | ⊚ (one double circle (⊚) represents a 1.2-fold or greater increase) |
| CN(C)c1cccc(-c2c3c(=O)n(-c4ccccc4Cl)[nH]c3cc(=O)n2C)c1 [GKT137831] | ○ (one circle (0) represents a 1.0-1.2-fold maintenance) |
| C#C[C@]1(O)CC[C@H]2[C@@H]3CCc4cc(O)ccc4[C@H]3CC[C@@]21C [Ethynyl Estsadiol] | ⊚⊚ (two double circles (⊚⊚) in the COL17A1 expression level (control ratio) represent a 2.0-fold or greater increase in the expression level) |
| CN1C(=O)C(Cc2c[nH]c3ccccc23)NC1=S (stereo not drawn) [Necrostatin-1] | ⊚ (one double circle (⊚) represents a 1.2-fold or greater increase) |
| CC(=O)c1ccc2c(c1)Nc1ccccc1S2 [ML171] | ○ (one circle (0) represents a 1.0-1.2-fold maintenance) |
| Cc1ccc(-c2cc(C(F)(F)F)nn2-c2ccc(S(N)(=O)=O)cc2)cc1 [Celecoxib] | ⊚ (one double circle (⊚) represents a 1.2-fold or greater increase) |
| COc1ccc(-c2cc(C(F)F)nn2-c2ccc(S(N)(=O)=O)cc2)cc1F [Deracoxib] | ⊚ (one double circle (⊚) represents a 1.2-fold or greater increase) |
| c1ccc2c(c1)[I+]c1ccccc1-2 [Diphenyleneiodonium (DPI), Diphenyleneiodonium] | ⊚ (one double circle (⊚) represents a 1.2-fold or greater increase) |
| O=C(O)c1cccnc1Nc1cccc(C(F)(F)F)c1 [Niflumic Acid] | ⊚ (one double circle (⊚) represents a 1.2-fold or greater increase) |
| C[C@H]1C[C@H]2[C@@H]3CCC4=CC(=O)C=C[C@]4(C)[C@@]3(F)[C@@H](O)C[C@]2(C)[C@@]1(O)C(=O)CO [Bethamethazone] | ⊚⊚ (two double circles (⊚⊚) in the COL17A1 expression level (control ratio) represent a 2.0-fold or greater increase in the expression level) |
| C[C@H]1[C@@H](O)O[C@@H]2O[C@@]3(C)CC[C@H]4[C@H](C)CC[C@@H]1[C@@]24OO3 [Artenimol] | ⊚ (one double circle (⊚) represents a 1.2-fold or greater increase) |
| C[C@]12C=CC(=O)C=C1CC[C@H]1[C@@H]3C[C@@H](O)[C@](O)(C(=O)CO)[C@@]3(C)C[C@H](O)[C@@]12F [Triamcinolone] | ⊚ (one double circle (⊚) represents a 1.2-fold or greater increase) |
| Cc1c(Cl)cccc1Nc1ccccc1C(=O)O [Tolfenamic Acid] | ⊚ (one double circle (⊚) represents a 1.2-fold or greater increase) |
| Monensin Sodium | ⊚ (one double circle (⊚) represents a 1.2-fold or greater increase) |
| COc1ccc2c(c1)c(CC(=O)OCC(=O)O)c(C)n2C(=O)c1ccc(Cl)cc1 [Acemetacin] | ⊚ (one double circle (⊚) represents a 1.2-fold or greater increase) |
| Clc1ccccc1C(c1ccccc1)(c1ccccc1)n1ccnc1 [Clotrimazole] | ⊚ (one double circle (⊚) represents a 1.2-fold or greater increase) |

Same assay, conditions: Table 3; anticancer drugs and molecularly targeted drugs

| Compound | COL17A1 expression level (control ratio) |
| --- | --- |
| O=P1(NCCCl)OCCCN1CCCl (stereo not drawn) [Ifosfamide] | 0.84 |
| O=c1[nH]c(=O)n(C2CCCO2)cc1F (stereo not drawn) [Tegafur] | 0.90 |
| COc1ccc(C[C@H](N)C(=O)N[C@H]2[C@@H](O)[C@H](n3cnc4c(N(C)C)ncnc43)O[C@@H]2CO)cc1 [Puromycin hydrochloride] | 0.85 |
| Nc1ccn([C@@H]2O[C@H](CO)[C@@H](O)C2(F)F)c(=O)n1 [Gemcitabine] | 0.96 |
| O=NN(CCCl)C(=O)NCCCl [Carmustine] | 0.94 |
| COc1cccc(-c2cc(=O)c3ccccc3o2)c1N [PD98059] | 0.84 |
| CC/C(=C(\c1ccccc1)c1ccc(OCCN(C)C)cc1)c1ccccc1 [Tamoxifen citrate] | 0.78 |
| CN(C)/N=N/c1[nH]cnc1C(N)=O [Dacarbazine] | 0.94 |
| N.N.[Cl][Pt][Cl] [Cisplatin] | 0.97 |
| Clc1ccc(C(c2ccccc2Cl)C(Cl)Cl)cc1 (stereo not drawn) [Mitotane] | 0.98 |
| C=C1C[C@@H]2[C@H](CC[C@]3(C)C(=O)CC[C@@H]23)[C@@]2(C)C=CC(=O)C=C12 [Exemestane] | 0.93 |
| CC(=O)O.O=c1[nH]cc(F)c(=O)[nH]1 [Fluorouracil acetate] | 0.88 |
| Toremiphene citrate | 0.94 |
| CCC(=O)O[C@H]1CC[C@H]2[C@@H]3CCC4=CC(=O)CC[C@]4(C)[C@H]3CC[C@]12C [Testosterone propionate] | 0.84 |
| S=c1nc[nH]c2nc[nH]c12 [Mercaptopurine] | 0.83 |
| Cn1nnc2c(C(N)=O)ncn2c1=O [Temozolomide] | 0.98 |
| Nc1nc(F)nc2c1ncn2[C@@H]1O[C@H](COP(=O)(O)O)[C@@H](O)[C@@H]1O [Fludarabine phosphate] | 0.90 |
| NC(=O)NO [Hydroxyurea] | 0.92 |
